Columns and labels:
[1] = test system: vascular endothelial growth factor (VEGF) expression in human dermal papilla cells; conditions: cited from earlier work
[2] = test system: VEGF gene expression in human dermal papilla cells; assay: Evaluation of human dermal papilla cell VEGF gene expression (real-time PCR); type: cell-based; conditions: 72 hours
Description: Exemplary Test 1: Evaluation of Human Dermal Papilla Cell VEGF Gene Expression
The VEGF gene is expressed in dermal papilla cells, and contributes to expression of such effects as increase in hair shaft diameter and improving maximum hair shaft length and improving hair shaft elongation rate and hair shaft growth promotion at head hair, beard, eyebrows, and/or eyelashes. Human dermal papilla cells were therefore used, and evaluation was carried out with respect to increase in VEGF gene expression for the respective components.
Human dermal papilla cells (Catalog No. CA60205a; derived from person; Toyobo Co., Ltd. (Japan)) were purchased, testing and evaluation being carried out with maintenance and culture of cells being performed as described in the protocol. […]
A 24-well plate was seeded with human dermal papilla cells so as to obtain 6×10^3 thereof per well. […] The GAPDH gene was used as an internal standard, the amount of VEGF gene expression being calculated relative to the negative control group. […]

Nc1ncnc2c1ncn2[C@@H]1O[C@H](CO)[C@@H](O)[C@H]1O [adenosine]
expression of vascular endothelial growth factor (VEGF) [1]: promotes expression of vascular endothelial growth factor (VEGF)

CCCCCCCCCCCCCC[C@@H](O)[C@@H](O)[C@@H](N)CO [Working Example 1, phytosphingosine]
change in amount of expression of the VEGF gene as compared with the control group ([2]; vs control group at which nothing had been added, GAPDH internal standard, FIG. 1): increase in dosage-dependent fashion in the amount of expression of the VEGF gene

CCCCCCCCCCCCCC[C@@H](O)[C@@H](O)[C@@H](N)CO [phytosphingosine]
amount of expression of the VEGF gene compared with Comparative Example 1 ([2]; increased amount of phytosphingosine vs Comparative Example 1, FIG. 1): significantly greater
